Literature values, collected in US11497761B2, “Compositions for the treatment of metastatic cancer” (priority 2019, dated 2022).

What was measured:
[1] = tested on: PGC-1α; settings: cultured C2C12 myotubes; cited from earlier work
[2] = tested on: Ehrlich ascites tumor cells; settings: in vitro, Kato et al. 1971; cited from earlier work
[3] = Kato et al. 1971; cited from earlier work

Compound | anticancer activity [2] | also measured
CCCCCCCCCCCC(=O)O [lauric acid, dodecanoic acid] |  | expression of PGC-1α [1]: did not alter expression
lauric sucrose ester | only weak activity | 
CCCCCCCCCCCCCCCC(=O)O [Hexadecanoic, Hexadecanoic acid] | most active | 
octadecadienoic acid | most active | 
CCCCCCCCCCCCCCCCCC(=O)O [octadeconoic, octadeconoic acid] | most active | 
CCCCCCCC/C=C\CCCCCCCC(=O)O [octadecenoic, octadecenoic acid] |  | solubility [3]: poorly soluble
